These results are taken from patent publication US20240254087A1, “SELECTIVE, PARTIAL, AND ARRESTIN-BIASED 5-HT2A AGONISTS WITH UTILITY IN VARIOUS DISORDERS” (Saint Joseph's University, priority 2021, published 2024).

Structures can show the parent of a compound that is named as a salt.

Data set [1] has as its target T1, 5-HT2C (Homo sapiens, UniProt P28335).
T1 sequence (P28335 33-458): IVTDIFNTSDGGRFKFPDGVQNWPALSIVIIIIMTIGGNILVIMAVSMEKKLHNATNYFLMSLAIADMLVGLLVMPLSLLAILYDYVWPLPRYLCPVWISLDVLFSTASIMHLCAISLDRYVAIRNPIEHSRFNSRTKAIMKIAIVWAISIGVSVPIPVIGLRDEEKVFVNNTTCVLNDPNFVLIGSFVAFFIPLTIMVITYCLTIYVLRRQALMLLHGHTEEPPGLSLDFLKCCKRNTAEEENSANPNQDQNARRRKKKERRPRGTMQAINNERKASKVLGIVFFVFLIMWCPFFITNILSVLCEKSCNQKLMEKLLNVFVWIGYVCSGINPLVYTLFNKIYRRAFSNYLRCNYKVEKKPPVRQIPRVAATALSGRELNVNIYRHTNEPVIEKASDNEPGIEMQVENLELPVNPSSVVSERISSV
As to the kind of experiment: Ca2+ flux assay, 5-HT2C. Type of data set: cell-based. Conditions: for Emax: read-out: 5-HT2C Emax % 5-HT. Further details: expressed in transfected cells. On the procedure:
(§1) Cell lines were maintained in DMEM containing 10% FBS, 10 μg/mL Blasticidin (Invivogen), and 100 μg/mL Hygromycin B (GoldBio). At least 20-24 hours before the assay, receptor expression was induced with tetracycline ([…]) and cells were seeded into 384-well poly-L-lysine-coated black plates at a density of 7,500 cells/well in DMEM containing 1% dialyzed FBS. On the day of the assay, the cells were incubated for 1 h at 37° C. with Fluo-4 Direct dye (Invitrogen, 20 μl/well) reconstituted in drug buffer (20 mM HEPES-buffered HBSS, pH 7.4) containing 2.5 mM probenecid. Drug dilutions were prepared at 5X final concentration in McCorvy buffer (20 mM HEPES-buffered HBSS, 0).1% BSA, 0.01% ascorbic acid pH 7.4). After dye load, cells were allowed to equilibrate to room temperature for 15 minutes, and then placed in a FLIPR^TETRA fluorescence imaging plate reader (Molecular Devices). Fluorescence for the FLIPR^TETRA were programmed to read baseline fluorescence for 10 s (1 read/s), and afterward 5 μl of drug per well was added and read for a total of 5-10 min (1 read/s). Fluorescence in each well was normalized to the average of the first 10 reads for baseline fluorescence, and then either maximum-fold peak increase over basal or area under the curve (AUC) was calculated. […] Data was plotted and non-linear regression was performed using “log(agonist) vs. response” in Graphpad Prism 8 to yield Emax and EC50 parameter estimates.

For data set [2], the target named is T2, 5-HT2A (Homo sapiens, UniProt P28223). In words: Competitive radioligand binding (NIMH PDSP). On the procedure: (§2) Method 1: Competitive binding experiments were performed by the National Institute of Mental Health Psychoactive Drug Screening Program (NIMH PDSP) using described methods or 5-HT2A experiments performed using [3H]-ketanserin displacement in human 5-HT2A expressing membranes. Target compounds were dissolved in DMSO and an initial screen performed to assess displacement of the radioligand from target receptors at a concentration of 10,000 nM. […] For the Ki experiments, compounds were always tested in triplicate on separate plates. Each plate also contained a known ligand for the receptor as a positive control.

Another data set addresses T3, 5-HT1A (Homo sapiens, UniProt P08908).
T3 sequence (P08908 1-422): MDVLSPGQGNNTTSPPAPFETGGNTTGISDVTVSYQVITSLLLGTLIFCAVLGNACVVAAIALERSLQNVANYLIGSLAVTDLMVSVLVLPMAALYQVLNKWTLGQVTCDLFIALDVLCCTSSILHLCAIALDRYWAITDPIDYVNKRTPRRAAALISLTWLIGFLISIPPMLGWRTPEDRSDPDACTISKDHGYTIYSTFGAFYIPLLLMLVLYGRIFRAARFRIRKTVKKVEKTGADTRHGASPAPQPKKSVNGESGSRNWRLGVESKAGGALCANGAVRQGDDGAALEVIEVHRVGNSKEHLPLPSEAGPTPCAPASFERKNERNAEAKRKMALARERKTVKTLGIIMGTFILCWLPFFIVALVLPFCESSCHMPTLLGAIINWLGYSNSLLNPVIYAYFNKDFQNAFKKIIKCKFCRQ
As to the kind of experiment: Competitive radioligand binding (NIMH PDSP). On the procedure: as §2

In the next data set the target is 5-HT1B (Homo sapiens, UniProt P28222). As to the kind of experiment: Competitive radioligand binding (NIMH PDSP). The procedure: as §2
A further data set concerns the target 5-HT1e (Homo sapiens, UniProt P28566). As to the kind of experiment: Competitive radioligand binding (NIMH PDSP). On the procedure:
as §2

The next data set has as its target 5-HT1D (Homo sapiens, UniProt P28221). In words: Competitive radioligand binding (NIMH PDSP). The procedure:
as §2

Another data set concerns the target T4, 5-HT3 (Homo sapiens, UniProt P46098).
T4 sequence (P46098 24-478): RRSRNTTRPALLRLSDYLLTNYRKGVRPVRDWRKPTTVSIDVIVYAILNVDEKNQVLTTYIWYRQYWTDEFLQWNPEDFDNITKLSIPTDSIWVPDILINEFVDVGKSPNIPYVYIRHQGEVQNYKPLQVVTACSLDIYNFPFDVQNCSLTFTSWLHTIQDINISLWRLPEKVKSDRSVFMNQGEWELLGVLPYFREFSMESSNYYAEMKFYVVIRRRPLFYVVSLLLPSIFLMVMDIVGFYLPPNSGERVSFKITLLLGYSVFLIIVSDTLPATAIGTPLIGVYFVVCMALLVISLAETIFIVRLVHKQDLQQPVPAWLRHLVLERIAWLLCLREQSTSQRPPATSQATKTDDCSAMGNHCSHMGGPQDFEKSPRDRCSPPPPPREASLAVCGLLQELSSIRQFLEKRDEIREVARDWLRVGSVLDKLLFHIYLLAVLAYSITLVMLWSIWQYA
As to the kind of experiment: Competitive radioligand binding (NIMH PDSP). On the procedure:
as §2

The target of data set [3] is T1, 5-HT2C. In words: Competitive radioligand binding (NIMH PDSP). More on the design: expressed in transfected cells. The procedure: as §2
Data set [4] addresses T5, 5-HT2B (Homo sapiens, UniProt P41595). As to the kind of experiment: Competitive radioligand binding (NIMH PDSP). More on the design: expressed in transfected cells. The procedure:
as §2

Data set [5] deals with T5, 5-HT2B. In words: Ca2+ flux assay, 5-HT2B. More on the design: expressed in transfected cells. Format: cell-based. The settings on record: Ca2+ flux; for Emax: read-out: 5-HT2B Emax % 5-HT. The procedure:
as §1

Data set [6] addresses T2, 5-HT2A. As to the kind of experiment: Ca2+ flux assay, 5-HT2A. More on the design: expressed in transfected cells. Format: cell-based. The settings on record: for EC50: 5-HT2A EC50, nM, Ca2+ flux; for Emax: read-out: 5-HT2A Emax % 5-HT, Ca2+ flux. On the procedure: as §1
Data set [7] concerns 5-HT2A. As to the kind of experiment: Ca2+ flux assay, 5-HT2A. Conditions: Gq/11 Ca2+ mobilization; higher number = skewed towards 5-HT2A. Format: cell-based, human. On the procedure: as §1
Data set [8] concerns the target T2, 5-HT2A. In words: [3H]-ketanserin displacement, 5-HT2A membranes. Format: binding. The settings on record: [3H]-ketanserin displacement (n = 2); read-out: 5-HT2A pKi Mean ± SEM (converted). Further details: ES-313-M400UA (membranes); host or cells: CHO-K1.

Chain of 5-HT1e (P28566 whole entry, species assumed): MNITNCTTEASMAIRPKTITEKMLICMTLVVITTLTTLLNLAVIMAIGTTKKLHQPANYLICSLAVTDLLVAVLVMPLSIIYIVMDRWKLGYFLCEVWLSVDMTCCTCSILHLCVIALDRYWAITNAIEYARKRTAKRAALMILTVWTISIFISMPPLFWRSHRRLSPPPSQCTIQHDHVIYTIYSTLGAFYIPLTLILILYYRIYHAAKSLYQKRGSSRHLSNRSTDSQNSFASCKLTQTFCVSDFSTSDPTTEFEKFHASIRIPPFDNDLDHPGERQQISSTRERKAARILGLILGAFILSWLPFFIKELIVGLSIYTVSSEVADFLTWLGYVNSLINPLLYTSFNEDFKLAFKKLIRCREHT
T5 sequence (P41595 whole entry): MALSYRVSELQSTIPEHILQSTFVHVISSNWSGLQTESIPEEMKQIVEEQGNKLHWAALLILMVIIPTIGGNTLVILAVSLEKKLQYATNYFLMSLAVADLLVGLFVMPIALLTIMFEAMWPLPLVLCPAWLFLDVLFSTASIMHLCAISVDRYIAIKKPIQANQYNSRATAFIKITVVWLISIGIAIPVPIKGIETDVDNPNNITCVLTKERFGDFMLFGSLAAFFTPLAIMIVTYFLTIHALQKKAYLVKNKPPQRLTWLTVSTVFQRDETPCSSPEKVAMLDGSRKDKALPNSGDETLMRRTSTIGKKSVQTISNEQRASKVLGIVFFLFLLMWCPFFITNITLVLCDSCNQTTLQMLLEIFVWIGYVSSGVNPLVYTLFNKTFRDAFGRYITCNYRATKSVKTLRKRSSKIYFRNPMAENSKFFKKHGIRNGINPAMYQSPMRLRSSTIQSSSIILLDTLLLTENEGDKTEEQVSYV
Chain of 5-HT1B (P28222 whole entry, species assumed): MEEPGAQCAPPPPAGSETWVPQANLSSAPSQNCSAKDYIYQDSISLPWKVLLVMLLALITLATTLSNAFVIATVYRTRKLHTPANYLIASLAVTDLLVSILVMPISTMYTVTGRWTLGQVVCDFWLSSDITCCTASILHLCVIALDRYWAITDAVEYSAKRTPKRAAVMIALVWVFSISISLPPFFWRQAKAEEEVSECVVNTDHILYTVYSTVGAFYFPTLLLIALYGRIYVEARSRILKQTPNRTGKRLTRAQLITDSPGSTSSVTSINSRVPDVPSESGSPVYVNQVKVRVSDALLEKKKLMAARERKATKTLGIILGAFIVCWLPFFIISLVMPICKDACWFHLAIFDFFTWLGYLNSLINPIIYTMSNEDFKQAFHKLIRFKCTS
Chain of 5-HT1D (P28221 whole entry, species assumed): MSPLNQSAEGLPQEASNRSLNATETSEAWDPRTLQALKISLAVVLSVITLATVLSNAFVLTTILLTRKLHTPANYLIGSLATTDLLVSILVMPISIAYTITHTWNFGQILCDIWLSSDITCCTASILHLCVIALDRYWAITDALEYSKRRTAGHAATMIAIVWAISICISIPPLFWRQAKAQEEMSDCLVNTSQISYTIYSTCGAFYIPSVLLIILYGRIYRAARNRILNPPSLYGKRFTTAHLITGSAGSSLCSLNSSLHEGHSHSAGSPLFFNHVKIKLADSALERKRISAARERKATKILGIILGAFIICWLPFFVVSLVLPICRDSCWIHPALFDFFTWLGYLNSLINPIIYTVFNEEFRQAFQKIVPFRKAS
T2 sequence (P28223 whole entry): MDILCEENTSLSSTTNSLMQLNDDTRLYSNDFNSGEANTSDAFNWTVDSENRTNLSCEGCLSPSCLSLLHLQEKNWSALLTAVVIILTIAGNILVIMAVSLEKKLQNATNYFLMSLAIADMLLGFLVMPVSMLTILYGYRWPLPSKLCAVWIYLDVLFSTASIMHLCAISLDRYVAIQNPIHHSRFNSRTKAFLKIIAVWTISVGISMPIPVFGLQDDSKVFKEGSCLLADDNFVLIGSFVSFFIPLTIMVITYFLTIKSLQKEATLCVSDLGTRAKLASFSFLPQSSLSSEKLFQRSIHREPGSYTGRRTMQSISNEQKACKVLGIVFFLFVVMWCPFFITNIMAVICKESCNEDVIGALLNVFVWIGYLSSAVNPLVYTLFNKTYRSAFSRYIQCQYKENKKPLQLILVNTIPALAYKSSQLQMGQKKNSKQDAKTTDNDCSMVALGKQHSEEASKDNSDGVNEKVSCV

Consider `COc1cc(CCNCc2cccc3ccccc23)cc(OC)c1Br` (as salt: HCl) [(31), 2-(4-bromo-3,5-dimethoxyphenyl)-N-[(naphthalen-1-yl)-methyl]ethan-1-amine], for which the melting point was 232.8 to 234.3 °C.
As to `COc1cc(Br)cc(OC)c1CC(C)NCc1cccc2ccccc12` (stereo not shown) (as salt: HCl) [(33)], the melting point lay in the range of 207.9 to 209.2 °C.
Take `COc1cc(Br)c(CCNCc2cccc(C)c2O)cc1OC` (as salt: HCl) [(43), 2-(((2-bromo-4,5-dimethoxyphenethyl)-amino)-methyl)-6-methylphenol]: the melting point lay in the range of 169.4 to 169.9 °C.
The compound `COc1cc(OC)c(OC)cc1CCNCc1cccc(I)c1` (as salt: HCl) [(53), N-(3-iodobenzyl)-2-(2,4,5-trimethoxyphenyl)-ethan-1-amine] returned a melting point of 155.5 to 156.1 °C.
The compound `COc1cc(OC)c(OC)cc1CCNCc1ccccc1-c1cccs1` (as salt: HCl) [(59), N-(2-(thiophen-2-yl)benzyl)-2-(2,4,5-trimethoxyphenyl)-ethan-1-amine] had a melting point of 158.4 to 159.8 °C.
Regarding `COc1cc([N+](=O)[O-])c(OC)cc1CCNCc1cccc(F)c1` [25N-NB-3-F (24), [2-(2,5-dimethoxy-4-nitrophenyl)ethyl][(3-fluorophenyl)methyl]amine], the EC50 was 149 nM at 5-HT2C [1] (5-HT2C EC50, nM) and 2.25 nM on 5-HT2A [6]. The Emax is 54 ± 1% on 5-HT2C [1], below 10% on 5-HT2B [5] and 85 ± 2% on 5-HT2A [6]. For the same compound, the Ki is 3.02 nM on 5-HT2A [2]; above 10000 nM on 5-HT1A; above 10 µM on 5-HT1B; above 10 µM on 5-HT1e; above 10 µM on 5-HT1D; above 10 µM on 5-HT3. For the same compound, the Ki at 5-HT2C [3] was 224 nM; at 5-HT2B [4], 42.7 nM. Moreover, the “5-HT2B EC50, nM” value at 5-HT2B [5] was “No activity”. Also, in the data set with 5-HT2A [7], the “5-HT2A/5-HT2c Selectivity Factor ΔLog(Emax/EC50)” value is listed as 154.4.
In the case of `COc1cc([N+](=O)[O-])c(OC)cc1CCNCc1ccc(F)cc1` [25N-NB-4-F (25), [2-(2,5-dimethoxy-4-nitrophenyl)ethyl][(4-fluorophenyl)methyl]amine], the EC50 at 5-HT2C [1] (5-HT2C EC50, nM) stood at 413 nM; on 5-HT2A [6], 19.7 nM. The values for the Emax at 5-HT2C [1], at 5-HT2B [5] and at 5-HT2A [6] were 21 ± 2%, below 10% and 48 ± 2%, respectively. Also, the Ki on 5-HT2A [2] was 6.17 nM; on 5-HT1A, above 10000 nM; at 5-HT1B, above 10 µM; on 5-HT1e it was above 10 µM; at 5-HT1D, above 10 µM; on 5-HT3 it was above 10 µM. Besides, the Ki is 813 nM on 5-HT2C [3] and 85.1 nM at 5-HT2B [4]. The “5-HT2B EC50, nM” value on 5-HT2B [5] was “No activity”. The “5-HT2A/5-HT2c Selectivity Factor ΔLog(Emax/EC50)” value with 5-HT2A [7] is 43.3.
For the compound `COc1cc([N+](=O)[O-])c(OC)cc1CCNCc1ccc(C)cc1` [25N-NB-4-Me (23), [2-(2,5-dimethoxy-4-nitrophenyl)ethyl] [(4-methylphenyl)methyl]amine], the 50% effective concentration (EC50) at 5-HT2C [1] (5-HT2C EC50, nM) came to 844 nM; at 5-HT2A [6], 38.3 nM. The Emax on 5-HT2C [1] was 14 ± 1%; at 5-HT2B [5], below 10%; on 5-HT2A [6] it was 42 ± 3%. In addition, the Ki is 5.5 nM on 5-HT2A [2]; 2630 nM on 5-HT1A; above 10 µM at 5-HT1B; above 10 µM at 5-HT1e; above 10 µM at 5-HT1D; above 10 µM at 5-HT3. Moreover, the Ki on 5-HT2C [3] is 631 nM; on 5-HT2B [4], 52.5 nM. For the same compound, on 5-HT2B [5], the “5-HT2B EC50, nM” value is given as “No activity”. The “5-HT2A/5-HT2c Selectivity Factor ΔLog(Emax/EC50)” value in the data set with 5-HT2A [7] came out at 66.1.
In the case of `COc1cc([N+](=O)[O-])c(OC)cc1CCNCc1cccc2c1OC(F)(F)O2` [25N-NBMDF2 (13), [(2,2-difluoro-2H-1,3-benzodioxol-4-yl)methyl][2-(2,5-dimethoxy-4-nitrophenyl)ethyl]amine], the EC50 is 437 nM at 5-HT2C [1] (5-HT2C (pEC50 ± SEM)); 431 nM on 5-HT2C [1] (5-HT2C EC50, nM); 3.02 nM at 5-HT2A [6]. Further, the Emax on 5-HT2C [1] was 49 ± 4%; on 5-HT2B [5], below 10%; on 5-HT2A [6], 86 ± 2%. Further, the Ki at 5-HT2A [2] was 1.2 nM; at 5-HT1A, 1000 nM; at 5-HT1B, above 10 µM; at 5-HT1e it was above 10 µM; at 5-HT1D, above 10 µM; on 5-HT3, above 10 µM. Also, the results for the Ki at 5-HT2C [3] and on 5-HT2B [4] were 214 nM and 46.8 nM, respectively. Also, at 5-HT2B [5], the “5-HT2B EC50, nM” value is listed as “No activity”. For the same compound, the “5-HT2A/5-HT2c Selectivity Factor ΔLog(Emax/EC50)” value with 5-HT2A [7] turned out to be 252.5.
Turning to `COc1cc(OC)c(OC)cc1CCNCc1cccc2ccsc12` [(73), N-(benzo[b]thiophen-7-ylmethyl)-2-(2,4,5-trimethoxyphenyl)-ethan-1-amine], the Ki on 5-HT2A [8] is 29.5 nM.
